No end group written: not given here. *: point of attachment. For = O=C*
Tests used:
Assay type in all cases: cell-based, human
K562 cells [1] = assay: Cell cycle assay, K562 cells; details: 72 h
Experimental: (§1) A panel of human myeloid leukemia cell lines (HL60, K562, KG1a, THP1 and U937) and HS-5 mesenchymal stromal cells lineage were cultured in Roswell Park Memorial Institute medium-1640 (RPMI; Sigma) containing 10% Fetal Bovine Serum (Gibco), glutamine (2 mM; Sigma), penicillin (100 μg/mL; Sigma), streptomycin (100 μg/mL; Sigma), and amphotericin B (0.25 μg/mL; Gibco). The cells were maintained in a humidified atmosphere at 37° C. and 5% CO2 and the experiments were performed when they reached exponential growth. For the assays, cells were seeded on a 24-well plate and treated or not with Foxy-5 for 72 hours.
Cells treated with Foxy or with vehicle were collected and fixed, at least, 24 hours in 70% ethanol. DNA was stained with a buffer containing iodide propidium (20 μg/mL; Sigma) and RNase A (10 μg/mL; Sigma). Cell fluorescence was detected with a FACSCalibur flow cytometer (BD). The proportions of cells in the cell cycle phases were analyzed by Modifit (Verify Software House Inc), according to DNA distributions.
As we observed a reduction in the leukemic proliferation after Foxy-5 treatment, we also analyzed the cell cycle phases. Leukemia cell lines were treated for 72 hours with Foxy-5, at doses of 50 μM and 100 μM, or vehicle, stained with the Piper buffer containing RNAse and iodeto propidium and then analyzed by flow cytometry.

U937 cells = assay: Cell growth assay, U937 cells; details: Foxy-5 100 μM, 72 h
Experimental: as §1
Cells treated with Foxy or with vehicle were collected and cell number was evaluated by manual counting in monoculture and by microscopy with Image J software analysis in 2D culture.
Next, we evaluated the proliferation rates since this process is modulated by ROS. We treated the cells with Foxy-5 (100 μM) or with vehicle (DMSO) during 72 hours, and then cell growth was analyzed by counting the cells in monoculture, manually, or by the Image J software analysis of the 2D cultures. […] Similar results were obtained in the 2D culture system using leukemia cells and HS-5 mesenchymal stromal cells.

HL60 cells = assay: Actin polymerization assay, HL60 cells; details: HL60, Foxy-5 100 μM 72 h
Experimental: F-actin polymerization was analyzed in treated leukemic cell lines using AlexaFluor 633-labeled phalloidin (A22284, Invitrogen) before and after CXCL12 stimulation. The cells were stimulated with CXCL12 (300 ng/ml; Peprotech) in serum-free media at 37 °C for 30 and 120 seconds. The reaction was stopped by adding 3 volumes of paraformaldehyde (3.7%) at room temperature for 10 min, then washed and permeabilized on ice. Cells were stained with 633-phalloidin (2 mg/mL). Flow cytometric data were analyzed using a FACS flow cytometer (BD) followed by FlowJo software analysis. The F-actin content obtained were normalized calculating the ratio between each stimulated cells-mean fluorescence intensity (MFI) values and the nonstimulated cells MFI from the basal levels of the control cells and expressed as fold change.
Therefore, we performed a flow cytometry analysis to evaluate whether Foxy-5 treatment would be able to disrupt actin polymerization. Leukemia cell lines were treated with Foxy-5 (100 μM) or vehicle during 72 hours, stimulated with CXCL12 (300 ng/ml) for 30 or 120 seconds, and stained with […] for detection of actin polymerization by flow cytometry. […] Thus, a significant reduction of actin polymerization was shown after Foxy-5 treatment when compared to untreated cells after 30 seconds of CXCL12 induction (P<. 001).

PI3K and MAPK pathways = assay: Western blot of PI3K and MAPK pathway proteins, K562 cells; details: K562, Foxy-5 50 μM or 100 μM, 72 h
Experimental: Equal amounts of protein were resolved by sodium dodecyl sulphate-polyacrylamide gel electrophoresis and transferred onto nitrocellulose membranes (Millipore). Detection was carried out with the chemiluminescent substrate using an ECL Plus (GE-Healthcare). Monoclonal antibodies against P70S6K (sc-8418) and polyclonal antibodies against Actin (sc-1616), AKT1/2/3 (sc-8312), BAX (sc-493), BCL-XL (sc-8392), GAPDH (sc-32,233), p-AKT1/2/3 (sc-33,437) and p-P70S6K (sc-7984) were purchased from Santa Cruz Biotechnology. ERK1/2 ([pT185/Y187]; 44-680G) and ERK1/2 (44-654G) from Invitrogen. Quantitative blots were carried out using the UN-SCAN-IT densitometer software.
Based on the above results, the activity of proteins of PI3K and MAPK pathways were then investigated in a western blot. Briefly, U937 and K562 cells were seeded and treated with Foxy-5 (50 μM or 100 μM) or vehicle for 72 hours. Then, equal amounts of protein were used for total extracts followed by electrophoresis on 12% SDS polyacrylamide gels under reducing conditions, transferred to nitrocellulose membranes, blocked with 10% skimmed milk in TBS-0.1% Tween for 1 hour, stained with appropriate primary and secondary antibodies. The membranes were visualized with chemiluminescence using an ECL Plus (GE-Healthcare). Quantitative analyses of the optical intensities of the protein bands were determined with Un-Scan-It Gel 6.1 (Silk Scientific Inc.).

K562 cells [2] = assay: Autophagy assay (acridine orange), K562 cells; details: K562, 2D culture, 72 h
Experimental: as §1
Cells treated with Foxy or with vehicle were collected and acids vesicles were measured by flow cytometry following staining with Acridine Orange (0.01 mg/mL; Sigma). Acquisition of cells was performed on a FACScalibur flow cytometer (BD) and analysis was carried out using the FlowJo software 4.
As autophagy is required for sustaining leukemia cell growth by induction of ROS production, we measured the levels of acidic granule formation by flow cytometry after Foxy-5 or vehicle treatment. […]

Foxy-5: Formylated hexapeptide fragment of WNT5A: MDGCEL (SEQ. ID. NO. 3) with methionine in position 1 as N-formyl methionine; WNT5A-mimicking compound (For-MDGCEL; listed as Homo sapiens)
cells in G0/G1 cell cycle phase (average) (K562 cells [1]; K562, co-cultured with HS5 stromal cells, Foxy-5 50 μM): 65.32%
cells in G0/G1 cell cycle phase (average) (K562 cells [1]; K562, co-cultured with HS5 stromal cells, Foxy-5 100 μM): 83.52%
cells in G0/G1 cell cycle phase (average) (K562 cells [1]; K562, monoculture, Foxy-5 50 μM): 59.00%
cells in G0/G1 cell cycle phase (average) (K562 cells [1]; K562, monoculture, Foxy-5 100 μM): 83.51%
reduced cell growth compared to vehicle treated cells (U937 cells; U937, 2D culture with HS-5 stromal cells): 1.72 fold decrease
reduced cell growth compared to vehicle treated cells (U937 cells; U937, monoculture): 1.75 fold decrease
F-actin content following CXCL12 stimulation (HL60 cells; CXCL12 300 ng/ml for 30 seconds): 1.14 fold increase
F-actin content following CXCL12 stimulation (HL60 cells; CXCL12 300 ng/ml for 120 seconds): 1.07 fold increase
phosphorylation level of AKT compared to vehicle-treated cells (PI3K and MAPK pathways): lower phosphorylation levels
phosphorylation level of ERK compared to vehicle-treated cells (PI3K and MAPK pathways): lower phosphorylation levels
protein level of cyclin D1 compared to vehicle-treated cells (PI3K and MAPK pathways): reduced protein level
autophagy (acidic granule formation, acridine orange, average) (K562 cells [2]; Foxy-5 50 μM): 21.32 (range 20.46-22.28) MFI
autophagy (acidic granule formation, acridine orange, average) (K562 cells [2]; Foxy-5 100 μM): 19.80 (range 19.70-20.40) MFI

From US20240226234A1, “WNT5A PEPTIDES FOR THE TREATMENT OF ACUTE M[…]” (W[…], priority 2021, published 2024)
